From paper PMC6917776, “Discovery of a chemical probe for PRDM9” (Nature Communications, 2019)
Where two headings read alike, the source gives them in different places.

Experiment: CelltiterGlo viability cell assay
Format: cell-based
Conditions: human
In short: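 Luminescent ATP-based viability (CelltiterGlo) was measured after 3 or 6 days of treatment at increasing concentrations from 0.01 μM up to 30 μM, with values expressed relative to DMSO-treated cells.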

[1] = MDA-MB-436 breast cancer cells, MDA MB436, 3 day, read-out: viability Replicate 2
[2] = MDA-MB-436 breast cancer cells, MDA MB436, 3 day, read-out: viability Replicate 3
[3] = MDA-MB-436 breast cancer cells, MDA MB436, 3 day, read-out: viability Average
[4] = MDA-MB-436 breast cancer cells, MDA MB436, 3 day, read-out: viability Replicate 1
[5] = MDA-MB-436 breast cancer cells, MDA MB436, 6 day, read-out: viability Average
[6] = MDA-MB-436 breast cancer cells, MDA MB436, 6 day, read-out: viability Replicate 1
[7] = MDA-MB-436 breast cancer cells, MDA MB436, 6 day, read-out: viability Replicate 2
[8] = MDA-MB-436 breast cancer cells, MDA MB436, 6 day, read-out: viability Replicate 3
[9] = MDA-MB-436 cells, MDA MB436, 3 day, read-out: viability Replicate 1
[10] = MDA-MB-436 cells, MDA MB436, 3 day, read-out: viability Replicate 2
[11] = RPMI-8226 cells (multiple myeloma line), 8226, 3 day, read-out: viability Average
[12] = RPMI-8226 cells (multiple myeloma line), 8226, 3 day, read-out: viability Replicate 1
[13] = RPMI-8226 cells (multiple myeloma line), 8226, 3 day, read-out: viability Replicate 2
[14] = RPMI-8226 cells (multiple myeloma line), 8226, 3 day, read-out: viability Replicate 3
[15] = RPMI-8226 cells (multiple myeloma line), 8226, 6 day, read-out: viability Average
[16] = RPMI-8226 cells (multiple myeloma line), 8226, 6 day, read-out: viability Replicate 1
[17] = RPMI-8226 cells (multiple myeloma line), 8226, 6 day, read-out: viability Replicate 2
[18] = RPMI-8226 cells (multiple myeloma line), 8226, 6 day, read-out: viability Replicate 3
[19] = RPMI-8226 cells, 8226, 3 day, read-out: viability Average
[20] = RPMI-8226 cells, 8226, 3 day, read-out: viability Replicate 1
[21] = RPMI-8226 cells, 8226, 3 day, read-out: viability Replicate 2
[22] = RPMI-8226 cells, 8226, 3 day, read-out: viability Replicate 3
[23] = RPMI-8226 multiple myeloma cells, 8226, 3 day, read-out: viability Average

Structure (SMILES): COc1cc(OC)cc(-c2noc(N3CCN(C)C4(CCN(c5ccnc(C)c5)CC4)C3)n2)c1 [MRK-740]
- viability at 3 day, 0.01 µM [1]: 98.8%
- viability at 3 day, 0.01 µM [2]: 92%
- viability at 3 day, 0.03 µM [3]: 105%
- viability at 3 day, 0.03 µM [4]: 124%
- viability at 3 day, 0.03 µM [1]: 99.1%
- viability at 3 day, 0.03 µM [2]: 92%
- viability at 3 day, 0.3 µM [3]: 94.8%
- viability at 3 day, 0.3 µM [2]: 92.8%
- viability at 3 day, 1 µM [3]: 104%
- viability at 3 day, 1 µM [4]: 114%
- viability at 3 day, 1 µM [1]: 105%
- viability at 3 day, 1 µM [2]: 93.4%
- viability at 3 day, 3 µM [3]: 104%
- viability at 3 day, 3 µM [4]: 120%
- viability at 3 day, 3 µM [1]: 100%
- viability at 3 day, 3 µM [2]: 91.2%
- viability at 3 day, 9.5 µM [3]: 94.9%
- viability at 3 day, 9.5 µM [4]: 108%
- viability at 3 day, 9.5 µM [1]: 89.3%
- viability at 3 day, 9.5 µM [2]: 87.6%
- viability at 3 day, 30 µM [3]: 51.5%
- viability at 3 day, 30 µM [4]: 60.8%
- viability at 3 day, 30 µM [1]: 50%
- viability at 3 day, 30 µM [2]: 43.6%
- viability at 6 day, 0.01 µM [5]: 103%
- viability at 6 day, 0.01 µM [6]: 97.8%
- viability at 6 day, 0.01 µM [7]: 106%
- viability at 6 day, 0.01 µM [8]: 107%
- viability at 6 day, 0.03 µM [5]: 102%
- viability at 6 day, 0.03 µM [6]: 99.8%
- viability at 6 day, 0.03 µM [7]: 100%
- viability at 6 day, 0.03 µM [8]: 106%
- viability at 6 day, 0.1 µM [5]: 104%
- viability at 6 day, 0.1 µM [6]: 105%
- viability at 6 day, 0.1 µM [7]: 101%
- viability at 6 day, 0.1 µM [8]: 106%
- viability at 6 day, 0.3 µM [5]: 107%
- viability at 6 day, 0.3 µM [6]: 108%
- viability at 6 day, 0.3 µM [7]: 105%
- viability at 6 day, 0.3 µM [8]: 109%
- viability at 6 day, 1 µM [5]: 112%
- viability at 6 day, 1 µM [6]: 109%
- viability at 6 day, 1 µM [7]: 116%
- viability at 6 day, 1 µM [8]: 111%
- viability at 6 day, 3 µM [5]: 113%
- viability at 6 day, 3 µM [6]: 115%
- viability at 6 day, 3 µM [7]: 112%
- viability at 6 day, 3 µM [8]: 112%
- viability at 6 day, 9.5 µM [5]: 70.8%
- viability at 6 day, 9.5 µM [6]: 69.6%
- viability at 6 day, 9.5 µM [7]: 71%
- viability at 6 day, 9.5 µM [8]: 71.9%
- viability at 6 day, 30 µM [5]: 35.6%
- viability at 6 day, 30 µM [6]: 34.7%
- viability at 6 day, 30 µM [7]: 35.7%
- viability at 6 day, 30 µM [8]: 36.5%
- viability at 3 day, 0.1 µM (MDA-MB-436 cells, MDA MB436, 3 day, read-out: viability Average): 105%
- viability at 3 day, 0.1 µM [9]: 123%
- viability at 3 day, 0.1 µM [10]: 102%
- viability at 3 day, 0.1 µM (MDA-MB-436 cells, MDA MB436, 3 day, read-out: viability Replicate 3): 90.1%
- viability at 3 day, 0.3 µM [9]: 91.5%
- viability at 3 day, 0.3 µM [10]: 100%
- viability at 3 day, 9.5 µM [11]: 98.3%
- viability at 3 day, 9.5 µM [12]: 105%
- viability at 3 day, 9.5 µM [13]: 96.6%
- viability at 3 day, 9.5 µM [14]: 93.4%
- viability at 3 day, 30 µM [11]: 54.9%
- viability at 3 day, 30 µM [12]: 74.2%
- viability at 3 day, 30 µM [13]: 34.5%
- viability at 3 day, 30 µM [14]: 56%
- viability at 6 day, 0.01 µM [15]: 102%
- viability at 6 day, 0.01 µM [16]: 101%
- viability at 6 day, 0.01 µM [17]: 102%
- viability at 6 day, 0.01 µM [18]: 102%
- viability at 6 day, 0.03 µM [15]: 101%
- viability at 6 day, 0.03 µM [16]: 100%
- viability at 6 day, 0.03 µM [17]: 101%
- viability at 6 day, 0.03 µM [18]: 102%
- viability at 6 day, 0.1 µM [15]: 100%
- viability at 6 day, 0.1 µM [16]: 96.9%
- viability at 6 day, 0.1 µM [17]: 102%
- viability at 6 day, 0.1 µM [18]: 102%
- viability at 3 day, 0.01 µM [19]: 98.4%
- viability at 3 day, 0.01 µM [20]: 97.7%
- viability at 3 day, 0.01 µM [21]: 100%
- viability at 3 day, 0.01 µM [22]: 97.6%
- viability at 3 day, 0.03 µM [19]: 99.5%
- viability at 3 day, 0.03 µM [20]: 97.9%
- viability at 3 day, 0.03 µM [21]: 100%
- viability at 3 day, 0.03 µM [22]: 100%
- viability at 3 day, 0.1 µM [23]: 101%
- viability at 3 day, 0.1 µM (RPMI-8226 multiple myeloma cells, 8226, 3 day, read-out: viability Replicate 1): 99.2%
- viability at 3 day, 0.1 µM (RPMI-8226 multiple myeloma cells, 8226, 3 day, read-out: viability Replicate 2): 101%
- viability at 3 day, 0.1 µM (RPMI-8226 multiple myeloma cells, 8226, 3 day, read-out: viability Replicate 3): 103%
- viability at 3 day, 0.3 µM [23]: 102%
